From the kinase profiling compilation of Christmann-Franck et al. (2016)

Legend:
Assay in all cases: KINOMEscan competition binding
Conditions in all cases: compound 10.0 µM
CDK19 (human) = CDK19 (human) (UniProt Q9BWU1)
CSNK1E (human) = CSNK1E (human) (UniProt P49674)
CSNK2A2 (human) = CSNK2A2 (human) (UniProt P19784)
CaMK1 (human) = CaMK1 (human) (UniProt Q14012)
EPHA5 (human) = EPHA5 (human) (UniProt P54756)
FGFR4 (human) = FGFR4 (human) (UniProt P22455)
FLT4 (human) = FLT4 (human) (UniProt P35916)
[1] = system: KIT (human), P10721 [V559D/T670I]
[2] = system: KIT (human), P10721 [V559D]
LIMK1 (human) = LIMK1 (human) (UniProt P53667)
MAP3K9 (human) = MAP3K9 (human) (UniProt P80192)
MAPK12 (human) = MAPK12 (human) (UniProt P53778)
Sequence of MAPK12 (human) (P53778 whole entry, looked up): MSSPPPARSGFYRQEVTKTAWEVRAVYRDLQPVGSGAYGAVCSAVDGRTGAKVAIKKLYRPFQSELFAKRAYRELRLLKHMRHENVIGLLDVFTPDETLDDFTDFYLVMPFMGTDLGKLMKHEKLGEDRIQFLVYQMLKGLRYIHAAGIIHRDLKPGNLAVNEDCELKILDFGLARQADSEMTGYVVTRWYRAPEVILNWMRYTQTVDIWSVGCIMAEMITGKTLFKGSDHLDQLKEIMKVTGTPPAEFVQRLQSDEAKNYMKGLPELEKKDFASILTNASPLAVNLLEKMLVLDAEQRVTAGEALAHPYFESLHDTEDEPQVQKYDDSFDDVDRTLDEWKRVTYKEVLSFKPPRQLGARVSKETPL

MAPK7 (human) = MAPK7 (human) (UniProt Q13164)
MAPK8 (human) = MAPK8 (human) (UniProt P45983)
MAPKAPK2 (human) = MAPKAPK2 (human) (UniProt P49137)
MARK2 (human) = MARK2 (human) (UniProt Q7KZI7)
MELK (human) = MELK (human) (UniProt Q14680)
MYLK (human) = MYLK (human) (UniProt Q15746)
MYLK2 (human) = MYLK2 (human) (UniProt Q9H1R3)
NEK5 (human) = NEK5 (human) (UniProt Q6P3R8)
PAK3 (human) = PAK3 (human) (UniProt O75914)
PDGFRB (human) = PDGFRB (human) (UniProt P09619)
PKMYT1 (human) = PKMYT1 (human) (UniProt Q99640)
Sequence of PKMYT1 (human) (Q99640 whole entry, looked up): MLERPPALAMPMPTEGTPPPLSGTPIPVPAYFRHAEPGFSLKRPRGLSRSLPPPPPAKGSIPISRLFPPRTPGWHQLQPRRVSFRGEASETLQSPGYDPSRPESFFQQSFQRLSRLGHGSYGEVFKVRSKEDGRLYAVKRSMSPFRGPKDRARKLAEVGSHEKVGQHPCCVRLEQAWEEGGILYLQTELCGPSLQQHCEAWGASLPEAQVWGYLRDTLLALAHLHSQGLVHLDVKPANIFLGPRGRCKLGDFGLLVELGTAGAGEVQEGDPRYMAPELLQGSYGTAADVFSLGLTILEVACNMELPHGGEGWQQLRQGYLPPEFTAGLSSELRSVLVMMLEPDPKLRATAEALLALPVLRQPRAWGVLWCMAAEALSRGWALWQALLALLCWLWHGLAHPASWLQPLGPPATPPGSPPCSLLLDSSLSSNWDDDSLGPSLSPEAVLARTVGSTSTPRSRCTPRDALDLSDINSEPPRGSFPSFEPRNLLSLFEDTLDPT

PRKCH (human) = PRKCH (human) (UniProt P24723)
RIOK1 (human) = RIOK1 (human) (UniProt Q9BRS2)
RIOK2 (human) = RIOK2 (human) (UniProt Q9BVS4)
ROS1 (human) = ROS1 (human) (UniProt P08922)
Sequence of ROS1 (human) (P08922 whole entry, looked up): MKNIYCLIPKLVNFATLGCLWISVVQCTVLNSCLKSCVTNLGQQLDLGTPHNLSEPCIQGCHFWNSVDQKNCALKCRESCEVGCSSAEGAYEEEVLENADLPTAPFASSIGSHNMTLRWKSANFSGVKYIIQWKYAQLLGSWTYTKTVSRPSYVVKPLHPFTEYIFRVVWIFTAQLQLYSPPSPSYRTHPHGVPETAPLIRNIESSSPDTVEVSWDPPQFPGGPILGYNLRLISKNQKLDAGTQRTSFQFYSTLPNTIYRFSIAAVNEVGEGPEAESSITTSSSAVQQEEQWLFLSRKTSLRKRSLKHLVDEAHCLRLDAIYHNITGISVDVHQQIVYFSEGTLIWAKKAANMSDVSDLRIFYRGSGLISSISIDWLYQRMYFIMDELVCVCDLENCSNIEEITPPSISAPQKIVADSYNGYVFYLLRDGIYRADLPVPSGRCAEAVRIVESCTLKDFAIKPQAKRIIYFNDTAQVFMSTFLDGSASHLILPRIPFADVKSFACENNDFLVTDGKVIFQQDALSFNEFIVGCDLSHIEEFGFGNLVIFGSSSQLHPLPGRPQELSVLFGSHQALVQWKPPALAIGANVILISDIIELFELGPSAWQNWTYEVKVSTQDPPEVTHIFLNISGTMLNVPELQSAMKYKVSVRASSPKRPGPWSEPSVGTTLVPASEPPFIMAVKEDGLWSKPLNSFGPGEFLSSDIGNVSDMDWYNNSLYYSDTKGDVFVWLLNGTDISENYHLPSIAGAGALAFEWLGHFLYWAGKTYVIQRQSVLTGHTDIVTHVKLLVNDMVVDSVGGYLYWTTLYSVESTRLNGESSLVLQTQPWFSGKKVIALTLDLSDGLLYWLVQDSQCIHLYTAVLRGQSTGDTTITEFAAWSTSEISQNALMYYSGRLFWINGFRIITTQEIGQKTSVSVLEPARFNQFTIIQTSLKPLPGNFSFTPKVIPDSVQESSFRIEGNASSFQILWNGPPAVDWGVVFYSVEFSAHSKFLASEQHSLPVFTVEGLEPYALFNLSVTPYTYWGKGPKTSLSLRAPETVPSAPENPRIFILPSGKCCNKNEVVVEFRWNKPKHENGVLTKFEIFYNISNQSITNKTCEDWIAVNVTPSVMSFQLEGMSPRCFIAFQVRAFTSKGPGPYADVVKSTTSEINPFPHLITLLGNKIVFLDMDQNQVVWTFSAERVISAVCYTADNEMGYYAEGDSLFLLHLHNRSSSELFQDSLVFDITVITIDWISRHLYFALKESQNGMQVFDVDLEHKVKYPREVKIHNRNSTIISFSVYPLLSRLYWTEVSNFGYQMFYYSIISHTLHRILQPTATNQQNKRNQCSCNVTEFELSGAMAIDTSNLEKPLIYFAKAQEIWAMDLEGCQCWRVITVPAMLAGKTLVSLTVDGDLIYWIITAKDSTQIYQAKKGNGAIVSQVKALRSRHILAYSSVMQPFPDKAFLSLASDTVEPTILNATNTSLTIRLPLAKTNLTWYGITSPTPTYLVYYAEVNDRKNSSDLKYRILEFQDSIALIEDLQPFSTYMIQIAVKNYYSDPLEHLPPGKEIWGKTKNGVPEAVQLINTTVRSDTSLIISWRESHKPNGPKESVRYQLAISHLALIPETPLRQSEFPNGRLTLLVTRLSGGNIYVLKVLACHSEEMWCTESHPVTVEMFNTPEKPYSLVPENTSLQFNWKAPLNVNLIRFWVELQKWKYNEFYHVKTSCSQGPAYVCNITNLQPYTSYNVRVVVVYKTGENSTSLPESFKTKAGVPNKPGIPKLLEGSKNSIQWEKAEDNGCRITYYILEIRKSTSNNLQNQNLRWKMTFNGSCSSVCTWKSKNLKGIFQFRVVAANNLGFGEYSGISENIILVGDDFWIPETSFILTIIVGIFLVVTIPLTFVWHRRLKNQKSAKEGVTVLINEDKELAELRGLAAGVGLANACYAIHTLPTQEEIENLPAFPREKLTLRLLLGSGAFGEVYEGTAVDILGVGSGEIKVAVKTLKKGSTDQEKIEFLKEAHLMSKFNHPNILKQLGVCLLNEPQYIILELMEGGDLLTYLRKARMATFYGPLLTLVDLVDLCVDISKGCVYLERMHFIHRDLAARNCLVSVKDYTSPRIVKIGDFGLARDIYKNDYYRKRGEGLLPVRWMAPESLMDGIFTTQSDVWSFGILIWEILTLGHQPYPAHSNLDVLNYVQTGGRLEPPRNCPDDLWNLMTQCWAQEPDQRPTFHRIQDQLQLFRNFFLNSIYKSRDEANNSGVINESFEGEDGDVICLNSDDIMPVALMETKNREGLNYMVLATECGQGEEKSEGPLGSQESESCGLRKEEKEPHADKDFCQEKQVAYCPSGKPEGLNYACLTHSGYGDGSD

RPS6KA2 KD2 (human) = RPS6KA2 KD2 (human) (UniProt Q15349)
SRPK3 (human) = SRPK3 (human) (UniProt Q9UPE1)
STK38L (human) = STK38L (human) (UniProt Q9Y2H1)
TNIK (human) = TNIK (human) (UniProt Q9UKE5)
Sequence of TNIK (human) (Q9UKE5 whole entry, looked up): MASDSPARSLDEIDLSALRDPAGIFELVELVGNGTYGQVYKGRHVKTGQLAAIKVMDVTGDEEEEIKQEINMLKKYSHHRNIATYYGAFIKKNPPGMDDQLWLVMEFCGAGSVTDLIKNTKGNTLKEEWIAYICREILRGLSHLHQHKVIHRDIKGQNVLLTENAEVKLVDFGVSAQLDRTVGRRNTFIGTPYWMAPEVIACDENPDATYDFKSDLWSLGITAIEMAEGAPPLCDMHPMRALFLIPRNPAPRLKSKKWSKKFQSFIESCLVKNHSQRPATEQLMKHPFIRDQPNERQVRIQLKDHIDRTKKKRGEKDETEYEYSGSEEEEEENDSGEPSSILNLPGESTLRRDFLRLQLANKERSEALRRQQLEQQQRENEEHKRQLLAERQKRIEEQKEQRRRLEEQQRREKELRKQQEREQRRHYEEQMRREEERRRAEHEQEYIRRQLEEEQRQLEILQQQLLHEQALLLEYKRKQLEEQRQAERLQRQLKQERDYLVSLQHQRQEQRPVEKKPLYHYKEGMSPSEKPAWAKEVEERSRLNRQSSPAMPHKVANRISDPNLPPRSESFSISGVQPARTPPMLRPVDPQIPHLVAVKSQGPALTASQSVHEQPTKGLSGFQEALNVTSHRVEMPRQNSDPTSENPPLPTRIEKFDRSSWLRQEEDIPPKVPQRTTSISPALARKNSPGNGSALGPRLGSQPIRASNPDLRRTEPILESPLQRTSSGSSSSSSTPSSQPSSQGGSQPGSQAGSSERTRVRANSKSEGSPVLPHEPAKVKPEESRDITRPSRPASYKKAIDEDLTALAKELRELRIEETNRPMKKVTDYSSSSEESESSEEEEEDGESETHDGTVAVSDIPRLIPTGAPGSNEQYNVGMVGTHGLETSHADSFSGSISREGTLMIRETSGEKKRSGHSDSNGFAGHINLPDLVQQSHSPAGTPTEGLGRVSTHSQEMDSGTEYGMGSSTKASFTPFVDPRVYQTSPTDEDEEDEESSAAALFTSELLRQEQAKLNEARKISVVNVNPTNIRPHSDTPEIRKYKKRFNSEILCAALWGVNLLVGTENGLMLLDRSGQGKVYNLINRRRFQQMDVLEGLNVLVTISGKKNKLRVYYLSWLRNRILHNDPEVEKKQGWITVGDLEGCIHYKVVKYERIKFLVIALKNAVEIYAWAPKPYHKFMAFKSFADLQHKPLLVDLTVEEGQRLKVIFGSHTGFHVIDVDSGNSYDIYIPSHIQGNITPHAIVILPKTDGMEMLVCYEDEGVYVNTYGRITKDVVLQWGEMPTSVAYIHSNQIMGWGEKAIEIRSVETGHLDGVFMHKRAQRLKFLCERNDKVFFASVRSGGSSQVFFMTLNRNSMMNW

CSNK1G3 (human) = CSNK1G3 (human) (UniProt Q9Y6M4)
NTRK1 (human) = NTRK1 (human) (UniProt P04629)

Sequence of CaMK1 (human) (Q14012 whole entry, looked up): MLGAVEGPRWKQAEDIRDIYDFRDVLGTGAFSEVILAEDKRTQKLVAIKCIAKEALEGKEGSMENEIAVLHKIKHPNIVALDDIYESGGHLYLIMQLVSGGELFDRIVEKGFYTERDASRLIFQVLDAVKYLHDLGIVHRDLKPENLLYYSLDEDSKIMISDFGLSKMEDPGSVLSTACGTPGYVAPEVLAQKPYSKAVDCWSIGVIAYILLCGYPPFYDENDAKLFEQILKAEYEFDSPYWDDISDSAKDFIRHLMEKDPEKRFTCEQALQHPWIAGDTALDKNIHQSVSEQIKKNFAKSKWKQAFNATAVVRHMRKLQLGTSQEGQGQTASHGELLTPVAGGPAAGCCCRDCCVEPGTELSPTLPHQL

| Structure (SMILES) | kinase still bound, per cent of control (CDK19 (human)) | kinase still bound, per cent of control (CSNK1E (human)) | kinase still bound, per cent of control (CSNK2A2 (human)) | kinase still bound, per cent of control (CaMK1 (human)) | kinase still bound, per cent of control (EPHA5 (human)) | kinase still bound, per cent of control (FGFR4 (human)) | kinase still bound, per cent of control (FLT4 (human)) | kinase still bound, per cent of control [1] | kinase still bound, per cent of control [2] | kinase still bound, per cent of control (LIMK1 (human)) | kinase still bound, per cent of control (MAP3K9 (human)) | kinase still bound, per cent of control (MAPK12 (human)) | kinase still bound, per cent of control (MAPK7 (human)) | kinase still bound, per cent of control (MAPK8 (human)) | kinase still bound, per cent of control (MAPKAPK2 (human)) | kinase still bound, per cent of control (MARK2 (human)) | kinase still bound, per cent of control (MELK (human)) | kinase still bound, per cent of control (MYLK (human)) | kinase still bound, per cent of control (MYLK2 (human)) | kinase still bound, per cent of control (NEK5 (human)) | further results |
| --- | --- | --- | --- | --- | --- | --- | --- | --- | --- | --- | --- | --- | --- | --- | --- | --- | --- | --- | --- | --- | --- |
| CC[C@@H]1C(=O)N(C)c2cnc(Nc3ccc(C(=O)NC4CCN(C)CC4)cc3OC)nc2N1C1CCCC1 | 100% | 100% | 100% | 100% | 100% | 100% | 100% | 100% | 100% | 100% | 100% | 100% | 19% | 100% | 100% | 100% | 29% | 3.6% | 100% | 100% | kinase still bound, per cent of control (PAK3 (human)): 100%; kinase still bound, per cent of control (PDGFRB (human)): 100%; kinase still bound, per cent of control (PKMYT1 (human)): 100%; kinase still bound, per cent of control (PRKCH (human)): 100%; kinase still bound, per cent of control (RIOK1 (human)): 100%; kinase still bound, per cent of control (RIOK2 (human)): 100%; kinase still bound, per cent of control (ROS1 (human)): 28%; kinase still bound, per cent of control (RPS6KA2 KD2 (human)): 7.2%; kinase still bound, per cent of control (SRPK3 (human)): 100%; kinase still bound, per cent of control (STK38L (human)): 100%; kinase still bound, per cent of control (TNIK (human)): 100% |
| COc1cc(C(=O)NC2CCN(C)CC2)ccc1Nc1ncc2c(n1)N(C1CCCC1)C(C)CC(=O)N2C (stereo not given) | 100% | 100% | 100% | 100% | 100% | 100% | 100% | 100% | 100% | 100% | 100% | 100% | 100% | 100% | 100% | 100% | 100% | 2.8% | 100% | 100% | kinase still bound, per cent of control (CSNK1G3 (human)): 100%; kinase still bound, per cent of control (NTRK1 (human)): 100%; kinase still bound, per cent of control (PAK3 (human)): 100%; kinase still bound, per cent of control (PDGFRB (human)): 100%; kinase still bound, per cent of control (PKMYT1 (human)): 100%; kinase still bound, per cent of control (PRKCH (human)): 100%; kinase still bound, per cent of control (RIOK1 (human)): 100%; kinase still bound, per cent of control (RIOK2 (human)): 100%; kinase still bound, per cent of control (ROS1 (human)): 100%; kinase still bound, per cent of control (RPS6KA2 KD2 (human)): 5.8%; kinase still bound, per cent of control (SRPK3 (human)): 100%; kinase still bound, per cent of control (STK38L (human)): 100%; kinase still bound, per cent of control (TNIK (human)): 100% |
| Cc1ccc(C(=O)Nc2cccc(C(F)(F)F)c2)cc1Nc1cncc(C(N)=O)c1 | 25% | 100% | 100% | 100% | 1.1% | 100% | 100% | 100% | 0% | 100% | 100% | 100% | 100% | 100% | 100% | 100% | 100% | 100% | 100% | 100% | kinase still bound, per cent of control (CSNK1G3 (human)): 100%; kinase still bound, per cent of control (NTRK1 (human)): 100%; kinase still bound, per cent of control (PAK3 (human)): 100%; kinase still bound, per cent of control (PDGFRB (human)): 0.05%; kinase still bound, per cent of control (PKMYT1 (human)): 100%; kinase still bound, per cent of control (PRKCH (human)): 100%; kinase still bound, per cent of control (RIOK1 (human)): 100%; kinase still bound, per cent of control (RIOK2 (human)): 100%; kinase still bound, per cent of control (ROS1 (human)): 100%; kinase still bound, per cent of control (RPS6KA2 KD2 (human)): 100%; kinase still bound, per cent of control (SRPK3 (human)): 100%; kinase still bound, per cent of control (STK38L (human)): 100%; kinase still bound, per cent of control (TNIK (human)): 100% |
| C=CC(=O)Nc1cccc(Oc2nc(Nc3ccc(N4CCN(C)CC4)cc3OC)ncc2Cl)c1 | 100% | 100% | 100% | 100% | 100% | 100% | 100% | 100% | 26% | 100% | 35% | 100% | 4% | 17% | 100% | 100% | 14% | 100% | 100% | 100% | kinase still bound, per cent of control (CSNK1G3 (human)): 100%; kinase still bound, per cent of control (NTRK1 (human)): 100%; kinase still bound, per cent of control (PAK3 (human)): 100%; kinase still bound, per cent of control (PDGFRB (human)): 11%; kinase still bound, per cent of control (PKMYT1 (human)): 100%; kinase still bound, per cent of control (PRKCH (human)): 100%; kinase still bound, per cent of control (RIOK1 (human)): 17%; kinase still bound, per cent of control (RIOK2 (human)): 12%; kinase still bound, per cent of control (ROS1 (human)): 5%; kinase still bound, per cent of control (RPS6KA2 KD2 (human)): 28%; kinase still bound, per cent of control (SRPK3 (human)): 8.4%; kinase still bound, per cent of control (STK38L (human)): 100%; kinase still bound, per cent of control (TNIK (human)): 100% |
